Experimental data reported in patent US7541367B2, “3-benzoimidazolyl-pyrazolopyridines useful in treating kinase disorders” (Janssen Pharmaceutica, N.V., priority 2005, dated 2009).

How the values were obtained:
CDK1 = target: T1, CDK1 (Homo sapiens, UniProt P06493); assay: CDK-1 kinase screening assay (33P-ATP FlashPlate); assay type: biochemical; conditions: human CDK1 with cyclin B; 10 μM ATP; 1 hr at 30° C
T1 construct: purchased New England Biolabs, Beverly, Mass; 6020; host or cells: insect cells

VEGF-R2 = target: T2, VEGF-R2 (Rattus norvegicus, UniProt O08775); assay: VEGF-R2 kinase screening assay (33P-ATP FlashPlate); assay type: biochemical; conditions: rat VEGF-R2 kinase domain; 10 μM ATP; 1 hr at 30° C;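 note: Read-out is ³³P incorporation from ³³P-γ-ATP into biotinylated peptide substrate captured on streptavidin FlashPlate, counted by scintillation, 1% DMSO final, inhibition scaled between per-plate maximum and minimum signals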
T2 construct: polyhistidine (N)

HER2 = target: T3, HER2 (Homo sapiens, UniProt P04626); assay: HER2 kinase screening assay (33P-ATP FlashPlate); assay type: biochemical; conditions: GST-HIS6 HER-2 aa 679 to 1255; 10 μM ATP; 1 hr at 30° C;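 note: Biotin-poly(GT) 4:1 peptide captured on streptavidin FlashPlate, 33P transfer from γ-ATP read by scintillation counting, lower incorporation means inhibition, 1% DMSO final, 100 µL reaction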
T3 construct: GST (Glutathione-S-Transferase) (N); HIS6 (N); thrombin cleavage site (N); purchased Proqinase, Freiburg, Germany

Aurora-A = target: T4, Aurora-A (Mus musculus, UniProt P97477); assay: Aurora-A kinase screening assay (33P-ATP FlashPlate); assay type: biochemical; conditions: 10 μM ATP, 1 hr at 30° C;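 note: His-tagged mouse Aurora-A phosphorylating a biotinylated peptide captured on streptavidin plates, read as 33P uptake by scintillation counting, 1% DMSO, inhibition scaled between per-plate maximum and minimum signals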
T4 construct: polyhistidine (N)
T4 sequence (P97477 1-395): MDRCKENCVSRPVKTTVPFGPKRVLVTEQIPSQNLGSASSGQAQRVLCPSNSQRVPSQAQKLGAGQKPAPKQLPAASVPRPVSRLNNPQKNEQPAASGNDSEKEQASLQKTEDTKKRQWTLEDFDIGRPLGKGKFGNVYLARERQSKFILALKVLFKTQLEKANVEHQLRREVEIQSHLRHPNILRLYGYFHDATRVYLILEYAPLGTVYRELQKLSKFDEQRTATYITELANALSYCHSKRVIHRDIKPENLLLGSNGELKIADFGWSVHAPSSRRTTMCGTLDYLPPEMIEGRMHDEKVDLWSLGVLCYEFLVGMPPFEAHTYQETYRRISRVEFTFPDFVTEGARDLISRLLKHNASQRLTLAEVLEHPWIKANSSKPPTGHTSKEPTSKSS

RET = target: T5, RET (Homo sapiens, UniProt P07949); assay: RET kinase screening assay (33P-ATP FlashPlate); assay type: biochemical; conditions: human RET kinase domain; 10 μM ATP; 1 hr at 30° C;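 note: biotinylated peptide substrate captured on streptavidin FlashPlate, 33P phosphate transfer read by scintillation counting, 1% DMSO, lower incorporation means inhibition, percent relative to per-plate maximum and minimum signals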
T5 construct: polyhistidine (N)
T5 sequence (P07949 658-1114 limits assumed): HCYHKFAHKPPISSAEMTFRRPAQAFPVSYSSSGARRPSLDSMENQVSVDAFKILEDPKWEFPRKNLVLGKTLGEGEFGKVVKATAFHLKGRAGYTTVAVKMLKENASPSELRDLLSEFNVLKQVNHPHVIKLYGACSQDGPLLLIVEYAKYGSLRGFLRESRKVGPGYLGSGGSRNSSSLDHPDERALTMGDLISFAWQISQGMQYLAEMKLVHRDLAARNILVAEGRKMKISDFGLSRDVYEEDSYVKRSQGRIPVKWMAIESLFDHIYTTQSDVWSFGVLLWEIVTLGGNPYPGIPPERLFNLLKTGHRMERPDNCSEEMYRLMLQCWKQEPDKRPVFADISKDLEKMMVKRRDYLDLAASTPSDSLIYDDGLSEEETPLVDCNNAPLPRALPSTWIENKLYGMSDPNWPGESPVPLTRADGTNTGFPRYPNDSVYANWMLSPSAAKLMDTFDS

c-Src kinase = target: T6, c-Src kinase (Homo sapiens, UniProt P12931); assay: c-Src Kinase Assay; assay type: biochemical; conditions: 5 μM ATP
T6 construct: purchased Upstate Biotechnology, Lake Placid, N.Y
Protocol: A mixture of a 10× kinase buffer (80 mM MOPS at pH 7.0, 2 mM EDTA and 100 mM Magnesium Chloride), ATP (5 μM final from a 10 mM stock), a Cdc2 peptide […] (100 μM final from a 2.5 mM stock), γ-^33P ATP (10 μCi/μL stock) and water (for a total of 20 μL/well) was added to each well of a Streptavidin Flashplate.
Test compound in 100% DMSO (0.5 μL) was added to the appropriate wells. Diluted c-Src kinase (human) (Accession Number SWISS-PROT P12931) (Upstate Biotechnology, Lake Placid, N.Y.) (diluted in a buffer consisting of 20 mM MOPS at pH 7.0, 1 mM EDTA, β-mercaptoethanol (0.1%), Brij-35 (0.01%), glycerol (5%), and 1 mg/mL bovine serum albumin) (2.5 μL) was added to the wells to initiate the reactions. The reaction plates were incubated at 30° C. for 40 min. The reaction was terminated by the addition of a 3% phosphoric acid solution (5 μL). The reaction product (10 μL) was spotted onto a P30 filtermat and washed for 5 minutes in phosphoric acid (75 mM). The wash sequence was repeated two more times, followed with one final wash in methanol. The plates were then dried, sealed and read on the TopCount scintillation counter after adding 30 μL scintillation fluid.
(§1) A maximum and minimum signal for the assay was determined on each plate. The percent inhibition of a test compound was calculated according to the formula: […]
For a series of test concentrations, the IC50 was derived by graphing percent inhibition against the log of the concentrations tested for a given compound with results shown in Table 2
(§2) For compounds with multiple values, each value represents a separate assay result.

Lyn kinase = target: T7, Lyn kinase (Homo sapiens, UniProt P07948); assay: Lyn Kinase Assay; assay type: biochemical; conditions: 5 μM ATP
T7 construct: purchased Upstate Biotechnology, Lake Placid, N.Y
Protocol: Test compound in 100% DMSO (0.5 μL) was added to the appropriate wells. Diluted Lyn kinase (human) (Accession Number EMBL M16038) (Upstate Biotechnology, Lake Placid, N.Y.) (diluted in a buffer consisting of 50 mM Tris at pH 7.5, 0.1 mM EGTA, Sodium Vanadate (0.1 mM), β-mercaptoethanol (0.1%) and 1 mg/mL bovine serum albumin) (2.5 μL) was added to the wells to initiate the reactions.
The reaction plates were incubated at 30° C. for 40 min. The reaction was terminated by the addition of a 3% phosphoric acid solution (5 μL). The reaction product (10 μL) was spotted onto a P30 filtermat and washed for 5 minutes in phosphoric acid (75 mM). The wash sequence was repeated two more times, followed with one final wash in methanol. The plates were then dried, sealed and read on the TopCount scintillation counter after adding 30 μL scintillation fluid.
as §1
For a series of test concentrations, the IC50 was derived by graphing percent inhibition against the log of the concentrations tested for a given compound with results shown in Table 3
as §2

[1] = test system: HeLa cervical adenocarcinoma; assay: Cell Proliferation Inhibition Assay (14C-thymidine incorporation), HeLa; assay type: cell-based; conditions: Homo sapiens, HeLa, HeLa cells;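 note: test compound in DMSO added to cells seeded in scintillating 96-well plates, DMSO-only wells as control, uptake of methyl 14C-thymidine into new DNA counted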
A375 malignant melanoma = assay: Cell Proliferation Inhibition Assay (14C-thymidine incorporation), A375; assay type: cell-based; conditions: Homo sapiens, A-375, A375 cells;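 note: proliferation measured by radiolabelled thymidine uptake into new DNA, counted in scintillating 96-well plates, compound-treated wells compared with DMSO-only control wells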
HCT-116 colon carcinoma = assay: Cell Proliferation Inhibition Assay (14C-thymidine incorporation), HCT-116; assay type: cell-based; conditions: Homo sapiens, HCT-116, HCT-116 cells;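 note: proliferation measured as methyl 14C-thymidine uptake into new DNA, counted in 96-well scintillating microplates, compared with DMSO-only control wells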

T1 sequence (P06493 whole entry): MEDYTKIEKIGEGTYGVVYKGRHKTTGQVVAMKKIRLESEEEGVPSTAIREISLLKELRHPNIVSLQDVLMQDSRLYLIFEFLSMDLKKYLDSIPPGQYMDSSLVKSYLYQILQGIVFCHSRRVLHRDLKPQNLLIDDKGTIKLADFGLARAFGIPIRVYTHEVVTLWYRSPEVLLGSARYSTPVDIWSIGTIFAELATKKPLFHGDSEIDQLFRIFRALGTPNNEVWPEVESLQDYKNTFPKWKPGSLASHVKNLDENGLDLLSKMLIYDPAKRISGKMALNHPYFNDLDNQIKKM
T1 sequence (P14635 whole entry partner): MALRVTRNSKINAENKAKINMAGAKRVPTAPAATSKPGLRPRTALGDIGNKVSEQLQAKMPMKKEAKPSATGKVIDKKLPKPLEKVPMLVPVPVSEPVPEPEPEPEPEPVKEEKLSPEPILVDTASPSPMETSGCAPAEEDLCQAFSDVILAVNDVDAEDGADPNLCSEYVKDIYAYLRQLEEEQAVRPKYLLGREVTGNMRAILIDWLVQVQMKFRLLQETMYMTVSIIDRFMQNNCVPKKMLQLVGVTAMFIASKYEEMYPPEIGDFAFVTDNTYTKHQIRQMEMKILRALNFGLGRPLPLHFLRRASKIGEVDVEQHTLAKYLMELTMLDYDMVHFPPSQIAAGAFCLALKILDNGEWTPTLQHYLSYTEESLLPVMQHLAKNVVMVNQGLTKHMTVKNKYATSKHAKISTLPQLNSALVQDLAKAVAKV
T2 sequence (O08775 786-1343): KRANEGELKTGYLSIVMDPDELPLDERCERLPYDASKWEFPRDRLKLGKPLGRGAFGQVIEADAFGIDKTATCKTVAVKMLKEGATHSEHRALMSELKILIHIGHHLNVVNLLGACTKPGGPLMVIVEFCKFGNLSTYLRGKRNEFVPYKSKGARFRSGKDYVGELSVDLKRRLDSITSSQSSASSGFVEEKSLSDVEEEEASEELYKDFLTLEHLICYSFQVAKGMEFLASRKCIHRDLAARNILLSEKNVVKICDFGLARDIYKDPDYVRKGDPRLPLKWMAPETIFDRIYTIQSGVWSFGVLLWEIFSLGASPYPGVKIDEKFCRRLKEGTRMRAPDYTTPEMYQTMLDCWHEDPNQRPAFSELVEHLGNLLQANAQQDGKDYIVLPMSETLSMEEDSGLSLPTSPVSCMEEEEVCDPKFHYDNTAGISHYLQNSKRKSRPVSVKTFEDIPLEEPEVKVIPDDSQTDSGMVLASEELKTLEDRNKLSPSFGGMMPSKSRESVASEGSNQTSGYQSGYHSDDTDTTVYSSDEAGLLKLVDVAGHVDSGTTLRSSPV
T3 sequence (P04626 679-1255): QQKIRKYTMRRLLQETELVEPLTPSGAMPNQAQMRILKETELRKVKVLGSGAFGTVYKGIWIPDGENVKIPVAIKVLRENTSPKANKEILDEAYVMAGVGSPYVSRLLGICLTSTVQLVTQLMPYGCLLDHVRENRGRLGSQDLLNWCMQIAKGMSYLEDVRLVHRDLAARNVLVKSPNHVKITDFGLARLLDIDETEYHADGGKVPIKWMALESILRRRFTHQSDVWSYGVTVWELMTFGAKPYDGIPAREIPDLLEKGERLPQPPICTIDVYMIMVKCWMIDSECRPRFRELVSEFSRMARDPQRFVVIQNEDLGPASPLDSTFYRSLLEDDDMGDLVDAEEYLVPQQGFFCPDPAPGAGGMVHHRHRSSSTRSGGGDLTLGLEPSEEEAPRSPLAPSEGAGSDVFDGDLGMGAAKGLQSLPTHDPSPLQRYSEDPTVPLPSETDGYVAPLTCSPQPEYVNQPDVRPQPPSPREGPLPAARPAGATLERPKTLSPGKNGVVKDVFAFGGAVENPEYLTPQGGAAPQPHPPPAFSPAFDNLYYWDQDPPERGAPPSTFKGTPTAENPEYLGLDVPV
T6 sequence (P12931 whole entry): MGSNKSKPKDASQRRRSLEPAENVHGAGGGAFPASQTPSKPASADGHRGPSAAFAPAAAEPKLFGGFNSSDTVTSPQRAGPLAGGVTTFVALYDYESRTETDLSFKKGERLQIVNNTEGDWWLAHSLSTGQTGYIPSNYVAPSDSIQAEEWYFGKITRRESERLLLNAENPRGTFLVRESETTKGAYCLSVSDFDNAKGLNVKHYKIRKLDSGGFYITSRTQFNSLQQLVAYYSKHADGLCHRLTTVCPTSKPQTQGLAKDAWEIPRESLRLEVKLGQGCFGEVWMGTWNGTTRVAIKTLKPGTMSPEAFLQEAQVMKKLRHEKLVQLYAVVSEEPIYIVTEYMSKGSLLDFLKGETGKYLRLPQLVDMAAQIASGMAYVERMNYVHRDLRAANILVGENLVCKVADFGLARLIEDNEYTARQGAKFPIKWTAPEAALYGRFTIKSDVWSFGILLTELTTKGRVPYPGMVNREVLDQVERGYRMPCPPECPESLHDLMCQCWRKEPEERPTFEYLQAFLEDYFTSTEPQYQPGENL
T7 sequence (P07948 whole entry): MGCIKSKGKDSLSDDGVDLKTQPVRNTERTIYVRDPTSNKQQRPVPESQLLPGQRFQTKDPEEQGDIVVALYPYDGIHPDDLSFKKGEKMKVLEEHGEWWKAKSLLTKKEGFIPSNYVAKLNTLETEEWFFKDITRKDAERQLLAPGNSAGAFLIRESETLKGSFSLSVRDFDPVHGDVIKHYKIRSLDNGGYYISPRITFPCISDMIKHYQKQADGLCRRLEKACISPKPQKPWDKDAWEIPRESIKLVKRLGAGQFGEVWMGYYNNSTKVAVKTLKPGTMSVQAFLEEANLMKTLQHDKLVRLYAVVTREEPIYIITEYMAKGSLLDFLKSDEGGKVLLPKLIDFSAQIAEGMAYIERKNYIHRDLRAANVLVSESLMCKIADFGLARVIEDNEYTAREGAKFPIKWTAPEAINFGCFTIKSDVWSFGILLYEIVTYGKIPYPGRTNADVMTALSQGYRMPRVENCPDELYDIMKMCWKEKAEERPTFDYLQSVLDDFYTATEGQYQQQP

SMILES | IC50 (CDK1) [nM] | IC50 (VEGF-R2) [nM] | IC50 (HER2) [nM] | IC50 (Aurora-A) [nM] | IC50 (RET) [nM] | IC50 (c-Src kinase) [nM] | IC50 (Lyn kinase) [nM] | IC50 [1] [nM] | IC50 (A375 malignant melanoma) [nM] | IC50 (HCT-116 colon carcinoma) [nM]
O=C(Nc1cccnc1)c1cccc2[nH]c(-c3n[nH]c4ncc(-c5cncc6ccccc56)cc34)nc12 [Cpd 48, 2-(5-isoquinolin-4-yl-1H-pyrazolo[3,4-b]pyridin-3-yl)-1H-benzoimidazole-4-carboxylic acid pyridin-3-ylamide] | 18.5 | ~10 | > 100000 | ~1000 | > 10000 | 5 | 23.6 | 300 | 188 | 488
CN(C)c1ccc(NC(=O)c2cccc3[nH]c(-c4n[nH]c5ncc(-c6cncc7ccccc67)cc45)nc23)cc1 [Cpd 49, 2-(5-isoquinolin-4-yl-1H-pyrazolo[3,4-b]pyridin-3-yl)-1H-benzoimidazole-4-carboxylic acid (4-dimethylamino-phenyl)-amide] | 64.8 | > 10000 | > 100000 | 154 | ~1000 | 1.13 | 4.35 | 334 | 302 | 426
CCN(CC)c1ccc(NC(=O)c2cccc3[nH]c(-c4n[nH]c5ncc(-c6cncc7ccccc67)cc45)nc23)c(C)c1 [Cpd 50, 2-(5-isoquinolin-4-yl-1H-pyrazolo[3,4-b]pyridin-3-yl)-1H-benzoimidazole-4-carboxylic acid (4-diethylamino-2-methyl-phenyl)-amide] | 40.6 | > 100000 | > 100000 | 168 | > 10000 | 1.04 | 5.21 | 258 | 242 | 455
CCN(CC)Cc1cccc2[nH]c(-c3n[nH]c4ncc(-c5cccnc5)cc34)nc12 [Cpd 52, diethyl-[2-(5-pyridin-3-yl-1H-pyrazolo[3,4-b]pyridin-3-yl)-1H-benzoimidazol-4-ylmethyl]-amine] | 24.6 | 1030 | > 100000 | 3620 | ~10000 | 570 | 299 | 454 | 247 | 345
CNCc1cncc(-c2cnc3[nH]nc(-c4nc5c(COC)cccc5[nH]4)c3c2)c1 [Cpd 56, {5-[3-(4-methoxymethyl-1H-benzoimidazol-2-yl)-1H-pyrazolo[3,4-b]pyridin-5-yl]-pyridin-3-ylmethyl}-methyl-amine] | 2.54 | 639 | > 100000 | > 1000 | ~1000 | 886 | 1080 | 459 | 268 | 313
COCc1cccc2[nH]c(-c3n[nH]c4ncc(-c5cncc(CNC(C)C)c5C)cc34)nc12 [Cpd 58, isopropyl-{5-[3-(4-methoxymethyl-1H-benzoimidazol-2-yl)-1H-pyrazolo[3,4-b]pyridin-5-yl]-4-methyl-pyridin-3-ylmethyl}-amine] | 339 | 3900 | > 100000 | 12400 | > 10000 | 653 | 529 | 2700 | 168 | 459
